Assay results taken from publication PMC7316822 (Scientific Reports, 2020).

What was measured:
MARK4 [1] = biological target: T1, MARK4 (Homo sapiens, UniProt Q96L34); test: Steady-state fluorescence quenching binding studies; conditions: for Kq (bimolecular quenching rate constant): Kq=Ksv/τ0; for ∆G: van't Hoff equation
T1 construct: made in house
T1 sequence (Q96L34 1-752): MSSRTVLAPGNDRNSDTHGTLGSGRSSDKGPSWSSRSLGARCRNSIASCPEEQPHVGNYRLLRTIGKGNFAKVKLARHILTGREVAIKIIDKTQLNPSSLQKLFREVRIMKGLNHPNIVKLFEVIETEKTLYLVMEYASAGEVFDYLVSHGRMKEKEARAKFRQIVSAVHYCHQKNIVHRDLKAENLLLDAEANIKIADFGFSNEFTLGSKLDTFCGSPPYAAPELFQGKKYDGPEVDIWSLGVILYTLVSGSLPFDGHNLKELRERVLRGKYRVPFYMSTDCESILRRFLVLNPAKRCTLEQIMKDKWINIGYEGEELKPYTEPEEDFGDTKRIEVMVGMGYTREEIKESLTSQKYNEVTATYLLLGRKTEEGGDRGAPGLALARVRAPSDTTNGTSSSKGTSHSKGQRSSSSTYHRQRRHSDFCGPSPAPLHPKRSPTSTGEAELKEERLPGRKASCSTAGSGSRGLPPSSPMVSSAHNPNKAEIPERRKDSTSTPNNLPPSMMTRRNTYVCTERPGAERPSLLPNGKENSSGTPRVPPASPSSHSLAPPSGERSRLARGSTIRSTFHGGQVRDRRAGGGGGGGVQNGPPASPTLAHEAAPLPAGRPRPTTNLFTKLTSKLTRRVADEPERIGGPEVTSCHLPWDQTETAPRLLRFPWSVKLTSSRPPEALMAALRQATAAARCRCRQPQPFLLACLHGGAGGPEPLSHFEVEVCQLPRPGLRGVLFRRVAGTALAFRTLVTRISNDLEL
Experimental: Fluorescence quenching experiments were carried out on Jasco FP-6200 spectrofluorometer attached with an external water bath which serves as a temperature controller. The experiment was carried out at three different temperatures in triplicates. The protein concentration was kept constant at 4 µM while the ligand was titrated in the ratio of 1:9 at all three temperatures (288 K, 298 K, and 305 K). The fluorescence intensities were corrected for the inner filter effect according to Chi & Liu, 2011[57] the following equation:1 Fcorrected=Fobservede^(Aex+Aobs)/2
Aex and Aobs are the absorption of the system at excitation and emission wavelengths, respectively. The fluorescence intensities were corrected after taking filter effect into account and all the reported spectra are the subtracted spectra taking fluorescence of ligand alone. Fluorescence quenching data was further analyzed employing Stern-Volmer, modified Stern-Volmer and van’t Hoff equation.
To analyze the quenching data, Stern Volmer equation (Eq. 2) was deployed to find the Stern-Volmer constant:2 F0/F=1+Ksv[C] where F0 & F are fluorescence intensity of MARK4 in the absence and presence of RA, [C] is the concentration of RA. Ksv refers to Stern–Volmer constant.
The Ksv value decreases with increasing temperature for static quenching while the opposite effect is observed for dynamic quenching. […] Thus, we can say that the MARK4-RA complex formation is driven by the dynamic mode of quenching. The mode of quenching was further confirmed from the value of bimolecular quenching rate constant, Kq, which was calculated as per Eq. 33 Kq=Ksv/τ0 τo refers to the average integral fluorescence lifetime of tryptophan and is reported to be 2.7 × 10^-9 s.
Further, decrease in fluorescence in the presence of RA was analyzed by modified Stern-Volmer equation (Eq. 4)[63],[64].4 logF0−F/F=logK+nlog[C]
Using van’t Hoff equation (Eq. 5)[65], thermodynamic parameters for ligand-protein interaction such as Gibbs free energy change (∆G), enthalpy change (∆H) and entropy change (∆S) can be calculated.5 ΔG=−RTLnK=ΔH−TΔS K is the binding constant, ∆H is enthalpy change, ∆G is Gibbs free energy change, ∆S is entropy change, and R is the universal gas constant (1.987 cal mol^−1 K^−1). The experimental fitting of data as per Eq. 5 is shown in Fig. 6C […]. The slope of this plot gives the value of -∆H/R, and the intercept giving the value of ∆S/R.“T”.

MARK4 [2] = biological target: T1, MARK4; test: Isothermal titration calorimetry; assay type: binding
Experimental: ITC measurements were done at 25 °C on a VP-ITC microcalorimeter from MicroCal, Inc (GE, MicroCal, USA). The first injection was a false one of 2 s with other injections set at 10 s. The sample cell was filled with MARK4 with reference cell with a reference buffer and a syringe containing 500 µM RA was titrated into MARK4. MicroCal Origin 8.0 was used to analyze the obtained data.

MARK4 [3] = biological target: T1, MARK4; test: ATPase enzyme inhibition assay (malachite green); assay type: biochemical; conditions: RA 0–18 µM, ATP 200 µM, MARK4 4 µM, 25 °C, 1 hour
Experimental: To see the inhibitory effect of RA on MARK4, an ATPase assay was carried out in the presence of increasing concentrations of RA. Freshly prepared ATP (200 µM) was added to MARK4 (4 µM) and final reaction mixture of 100 μl was incubated at 25 °C for 1 hour. Malachite green (200 μl) was further added to the reaction mixture to stop the reaction followed by incubation of samples at room temperature for 20–25 minutes for the development of color. From the final reaction mixture, 100 μl was transferred to a 96-well plate in triplicates to measure spectrophotometrically at 620 nm.

phosphorylation of tau = test: Tau-phosphorylation assay (flow cytometry); assay type: cell-based, human; conditions: SH-SY5Y cells, IC50 and 2 × IC50 doses, 48 h, vs untreated cells
Experimental: To see the effect of RA treatment on the activity of MARK4, Tau-phosphorylation studies were performed as per the previously published protocol. Briefly, SH-SY5Y cells were incubated with IC50 and 2 × IC50 doses of RA. Approximately, 10^6 cells were collected after 48 h treatment, washed with PBS, fixed and incubated with anti-tau antibodies at 25 °C for 2–4 hrs. Following the incubation, cells were washed and analyzed by flow cytometry.

MDA-MB-231 cells [4] = test: MTT cell viability, MDA-MB-231; assay type: cell-based, human; conditions: MDA-MB-231, 0–200 μM, 72 h
A549 cells = test: MTT cell viability, A549; assay type: cell-based, human; conditions: A549, 0–200 μM, 72 h
Experimental: The cytotoxicity studies of selected synthesized compounds were accessed using standard MTT assay[16],[58],[59]. Briefly, 5000–6000 cells/well were plated in 96-well cell culture plate and next day cells were treated with selected compounds (0–200 μM) for 72 h. After 72 h incubation, the culture medium was removed and after washing with phosphate buffer saline (pH 7.4) cells were incubated with MTT solution (a mixture of 100 µl in complete medium and 25 µl of MTT solution taken from 5 mg/ml stock), at 37 °C in the CO2 incubator. Afterward, the resultant formazan crystals were dissolved in 150–200 µl of DMSO and the absorbance of the reaction product was measured at 570 nm using a multiplate ELISA reader (BioRad). The percentage of cell viability was calculated and plotted as a function of RA concentration.

MARK4 [5] = test: MARK4 protein expression by western blot; assay type: cell-based, human; conditions: MDA-MB-231 cells, IC50 concentration, 48 h, immunoblotting
Experimental: MDA-MB-231 vehicle control or RA treated cells were lysed in RIPA cell lysis buffer (Thermo Fisher Scientific, USA). Total protein was isolated and quantified by Bicinchoninic acid assay kit. Approximately 30–40 μg of whole-cell protein was diluted with 6X Laemmli’s buffer, boiled for 3–5 min and resolved using 12% SDS-polyacrylamide electrophoresis under reducing conditions. The resolved polypeptides were transferred to polyvinylidene fluoride (PVDF) membrane using blotting and identified using protein-specific primary antibodies and horseradish peroxidase conjugated secondary antibodies. Luminol was used as a chemiluminescent substrate for HRP[56].

MDA-MB-231 cells [6] = test: Cell apoptosis assay (Annexin-V/PI staining); assay type: cell-based, human; conditions: 72 h
Experimental: Apoptosis inducing properties of RA was studied using Annexin-V/PI staining as described previously[58],[60]. In brief, cells were treated with IC50 and 2 × IC50 doses of RA for 72 h at 37 °C, while control cells were treated with cell culture media only or vehicle control. After 72 h incubation, ~1.0–1.5 × 10^6 cells were collected, washed three times with PBS and stained using FITC labeled Annexin-V and PI (BD-Biosciences, USA). Stained cells were analyzed using BD LSR II Flow Cytometry Analyzer and FlowJo.

[7] = Binding constant (K), fluorescence quenching studies, temperature not given
[8] = van't Hoff plot, 288, 298 and 305 K

Question: With `O=c1oc2c(O)c(O)cc3c(=O)oc4c(O)c(O)cc1c4c23` [Ellagic Acid] as the compound, how does the Kd (MARK4 [1]; [7]) read?
Answer: Its Kd is 9900 µM.

Question: For `COc1cc(/C=C/C(=O)O)ccc1O` [Ferulic Acid], which “binding constant (K)” value (MARK4 [1]; fluorescence quenching studies, temperature not given) is on record?
Answer: Its value is 50 M⁻¹.

Question: For `O=c1c(O)c(-c2ccc(O)c(O)c2)oc2cc(O)cc(O)c12` [Quercetin], which Kd (MARK4 [1]; [7]) is on record?
Answer: Its Kd is 9760 µM.

Question: What does the source list for `O=C(/C=C/c1ccc(O)c(O)c1)O[C@H](Cc1ccc(O)c(O)c1)C(=O)O` [Rosmarinic acid]?
Answer: Ksv (Stern-Volmer constant) (MARK4 [1]; 288 K): 11.5 10^5 M^−1; TΔS° (MARK4 [1]; 288 K): -12.0468 kcal/mol; n (number of binding sites) (MARK4 [1]; 288 K): 1.34; Kq (bimolecular quenching rate constant) (MARK4 [1]; 288 K): 4.25 10^14M^-1 s^-1; binding constant (K) (MARK4 [1]; 288 K, double log relation): 5e+06 M⁻¹; ∆G (MARK4 [1]; 288 K): -8.956 kcal/mol; Ksv (Stern-Volmer constant) (MARK4 [1]; 298 K): 24.9 10^5 M^−1; TΔS° (MARK4 [1]; 298 K): -12.4651 kcal/mol; n (number of binding sites) (MARK4 [1]; 298 K): 1.22; Kq (bimolecular quenching rate constant) (MARK4 [1]; 298 K): 9.22 10^14M^-1 s^-1; binding constant (K) (MARK4 [1]; 298 K, double log relation): 2e+06 M⁻¹; ∆G (MARK4 [1]; 298 K): -8.538 kcal/mol; Ksv (Stern-Volmer constant) (MARK4 [1]; 305 K): 29.4 10^5 M^−1; TΔS° (MARK4 [1]; 305 K): -12.7579 kcal/mol; n (number of binding sites) (MARK4 [1]; 305 K): 1.10; Kq (bimolecular quenching rate constant) (MARK4 [1]; 305 K): 10.88 10^14M^-1 s^-1; binding constant (K) (MARK4 [1]; 305 K, double log relation): 700000 M⁻¹; ∆G (MARK4 [1]; 305 K): -8.245 kcal/mol; Kd (MARK4 [1]; [7]): 0.1 µM; Kd (MARK4 [1]; K (binding constant), 288 K, modified Stern-Volmer): 0.2 µM; Kd (MARK4 [1]; K (binding constant), 298 K, modified Stern-Volmer): 0.5 µM; Kd (MARK4 [1]; K (binding constant), 305 K, modified Stern-Volmer): 1.43 µM; ∆H (MARK4 [1]; [8]): -21.003 kcal/mol; ∆S (MARK4 [1]; [8]): −41.82 calmol^−1K^−1; Kd (MARK4 [2]): 0.227 µM; ∆S (MARK4 [2]; ITC, 25 °C): −26.4 cal.mol^−1K^−1; IC50 (MARK4 [3]): 6.2 µM; phosphorylation of tau (phosphorylation of tau): decreases phosphorylation of tau; cell growth / viability (MDA-MB-231 cells [4]): significantly inhibited the growth; cell growth / viability (A549 cells): significantly inhibited the growth; protein expression level of MARK4 (MARK4 [5]): decreases the expression of MARK4; apoptotic cells (MDA-MB-231 cells [6]; MDA-MB-231, 2 × IC50 concentration): 15.90%; apoptotic cells (MDA-MB-231 cells [6]; MDA-MB-231, IC50 concentration): 9.0%

Question: `COc1cc(C=O)ccc1O` [Vanillin] was tested. Which Kd (MARK4 [1]; [7]) did it give?
Answer: The Kd was 6.21 µM.
